The text below walks through data of US20040120938A1, “Ingestible compositions comprising antibacterial agents” (The University of Bath, priority 1998, published 2004).

Data set [1] relates to E. coli. In words: Peroxynitrite scavenger and XO systems on bacterial growth curves in nutrient broth (Test 8(d)). Conditions: 100 μM with peroxynitrite 100 μM. The class given is cell-based. How it is done:
E. coli were seeded into nutrient broth at 2.10^7 cell ml^−1 and incubated at 37° C. under atmospheric air conditions (that is, 21% oxygen saturation). Four separate test samples of volume 1 ml were prepared by addition at 1 hour of incubation as follows:
1 Peroxynitrite at concentration 100 μM.
2 Peroxynitrite at 100 μM and quercetin (peroxynitrite scavenger) at 100 μM.
3 Xanthine oxidase (53.2 μg) and xanthine at 100 μM.
4 Xanthine oxidase (53.2 μg) and NADH at 100 μM.
Corresponding controls were also prepared, and the growth curves generated over time determined by monitoring absorbance.

In data set [2] the test system is E. coli. In words: Xanthine oxidase derived species on cell viability at a range of oxygen concentrations (Test 8(c)). The class given is cell-based. How it is done:
E. coli were cultured as described above. Aliquots were taken and incubated with a reaction system consisting of bovine Xanthine oxidase (XO) (53.2 μgml^−1), nicotinamide adenine dinucleotide in reduced form (NADH) (300 μM), sodium nitrite, (NaNO2) 1 mM and oxygen at a range of concentrations. Desired oxygen concentrations were generated by delivery into the system of a mixture of oxygen and nitrogen in appropriate proportions and determined using a Clark-type O2 electrode. This reaction was followed at 37° C. for 30 min with mixing before an aliquot was taken and plated onto agar and incubated in a warm room at 37° C. Viable cells formed colonies on the agar and were counted. Viable cell counts were performed in triplicate and the results expressed as a percentage viable count in each case related to a non enzyme control of the same oxygen concentration. […] The range of oxygen tensions used covers those in which XO has previously been considered to be active, namely superoxide generation (21% O2 saturation) and nitric oxide production (0% O2 saturation). A certain amount of killing is seen at both of these extremes as compared with control samples. However, it is only at an intermediate oxygen concentration that the greatest amount of killing is observed. […] Corresponding data obtained in respect of S. enteritidis indicated a peak killing oxygen concentration of 0% for that cell type.
Replacement of NADH in the above method by 100 μM hypoxanthine, with a sodium nitrite concentration of 2.5 μM led to slightly higher peak killing oxygen concentrations (6.4% for E. coli and 1.5% for S. enteritidis).

The next data set has as its system S. enteritidis. Described as above. The class given is cell-based.
Data set [3] has as its system Staphylococcus aureus 6751. In words: Bacterial growth rate by optical density, 96 well plate (Tests 8(f), 8(g)). In kind it is cell-based. Conditions: Staphylococcus; hypoxanthine 100 μM, range of XO concentrations. How it is done: Bacteria were seeded into nutrient broth (NB) and grown over night at 37° C. The culture was then counted and normalised to give a final cell concentration of 1.8×10^7 cells well^−1 into the wells of a 96 well plate in fresh nutrient broth. The optical density of each well was monitored every 15 minutes as a measure of the growth rate of each bacterial species. Growth curves were generated for each species and the maximal rate of growth (logarithmic phase) was measured. Cells were treated to a range of experimental conditions in which the growth rate of cells was related to a control of untreated cells. The results were expressed as a percentage of the growth rate of the control cells.
(i) At a fixed concentration of hypoxanthine (100 μM) a range of purified XO protein concentrations were added at time 0 minutes. The optical density was followed and the growth rate calculated.
(ii) The growth rate was also measured in relation to the concentration of hypoxanthine, using 30 μg of XO with cells seeded as described above.
(iv) The effect of XO hypoxanthine addition was measured on the growth rate of a range of bacterial species with 30 […] XO at varying hypoxanthine concentrations using cells seeded as described above.

For data set [4], the system named is nitric oxide (NO) release. In words: NO release from pure bovine xanthine oxidase with nitrite and NADH under hypoxia (Tests 1-3). The class given is biochemical. How it is done: The production of nitric oxide in the following tests and examples was analysed using an ozone chemiluminescence assay in a continuous flow apparatus (Sievers NOA 280) that allows the real time analysis of NO production. The apparatus was modified to allow a constant stream of nitrogen to flow into the reaction chamber. Chemiluminescence data were collected by a data acquisition system; the mean NO produced in parts per billion (ppb) was calculated from readings taken every second and shown as ppb or mV.
Progress curves, of molar production of NO against time, were calculated by taking into account the gas flow and the mean level of NO. Molar production of NO was expressed as ppb/sec or mV/sec. Reactions were carried out in a final volume of 1 ml at 37° C. in an atmosphere of <1% oxygen (Stathkelvin combination needle oxygen electrode, Diamond General Corp.).
The release of nitric oxide (NO) from a composition including pure bovine xanthine oxidase under hypoxia conditions was studied. The samples studied comprised reduced β-Nicotinamide adenine dinucleotide (NADH) and nitrite (NO2^−) and pure bovine xanthine oxidase.
Bovine xanthine oxidase was diluted with PBS as indicated in Table 1 below to give 300 μl of enzyme mixture. The enzyme mixture (300 μl) was mixed with 700 μl of a substrate mixture to give an assay volume of 1 ml. The substrate mixture comprised nitrite which was added to the assay to give a concentration of 1 mM and NADH which was added to give a concentration of 0.3 mM. Where, for example in Tests 2 to 4 below, additional components are added to the sample, the amount of PBS is adjusted accordingly to give an assay volume of 1 ml. The sample was placed in the reaction vessel of the NO determination apparatus under a nitrogen atmosphere and the generation of NO was measured and the results calculated as a steady state rate in mV/s.
Using the method described above in respect of Test 1, the effect of the variation in the concentration of NADH on the production of NO was investigated. 4 mM NADH was diluted with PBS to give the relevant concentration.
Using the method described above in respect of Test 1, the effect of the variation in the concentration of nitrite on the production of NO was investigated. As for Test 1, the concentration of NADH was 0.3 mM. 1M nitrite (or 100 mM nitrite, where appropriate for low concentrations) was diluted with PBS to give the relevant concentration.

On to `O=c1c(O)c(-c2ccc(O)c(O)c2)oc2cc(O)cc(O)c12` [quercetin], for which, in the data set on E. coli [1], the “effect on peroxynitrite killing” value is “clear effect in reducing killing”.

For `O=c1[nH]c(=O)c2[nH]cnc2[nH]1` [xanthine], the “killing using xanthine instead of hypoxanthine” value in the data set with E. coli [2] (XO system, cell type not specified) is reported as “More limited killing”.

Regarding xanthine oxidoreductase [XOR], the “killing above about 8% oxygen” value with E. coli [2] (E. coli) and in the data set with S. enteritidis was “little or no killing” each time. For the same compound, in the data set with E. coli [2] (E. coli, XO 53.2 μg/ml, NADH 300 μM, NaNO2 1 mM, 37° C., 30 min), the “oxygen concentration of most effective killing” value is “approximately 3 % of saturation”. In addition, the killing result with E. coli [2] (E. coli, oxygen concentration about 21%) is reported as “about 5%”; in the data set on S. enteritidis (oxygen concentration about 21%), “about 10%”. The “peak killing oxygen concentration” value with S. enteritidis (XO, NADH, NaNO2) was 0%. Further, the growth inhibition result in data set [3] is “less marked growth inhibition”. For the same compound, the NO release stood at 0.00 mV/s in data set [4] (XOR 21.4 μg, nitrite 0 mM, NADH 0.3 mM); 53.75 mV/s in data set [4] (XOR 21.4 μg, nitrite 1 mM, NADH 0.3 mM); 184.8 mV/s in data set [4] (XOR 21.4 μg, nitrite 5 mM, NADH 0.3 mM); 378.10 mV/s in data set [4] (XOR 21.4 μg, nitrite 10 mM, NADH 0.3 mM); 407.55 mV/s in data set [4] (XOR 21.4 μg, nitrite 25 mM, NADH 0.3 mM); 474.05 mV/s in data set [4] (XOR 21.4 μg, nitrite 50 mM, NADH 0.3 mM). For the same compound, the NO release in data set [4] (XOR 53.5 μg, NADH 0.00 mM) is 0.00 mV/s; in data set [4] (XOR 53.5 μg, NADH 0.10 mM), 30.45 mV/s; in data set [4] (XOR 53.5 μg, NADH 0.25 mM), 66.80 mV/s; in data set [4] (XOR 53.5 μg, NADH 0.50 mM), 92.55 mV/s; in data set [4] (XOR 53.5 μg, NADH 1.00 mM), 103.35 mV/s; in data set [4] (XOR 53.5 μg, NADH 2.00 mM), 109.20 mV/s. In addition, the NO release in data set [4] (XOR 107.0 μg, NADH 0.00 mM) was 0.00 mV/s; in data set [4] (XOR 107.0 μg, NADH 0.10 mM) it was 74.45 mV/s; in data set [4] (XOR 107.0 μg, NADH 0.25 mM) it was 142.70 mV/s; in data set [4] (XOR 107.0 μg, NADH 0.50 mM), 192.65 mV/s; in data set [4] (XOR 107.0 μg, NADH 1.00 mM) it was 230.05 mV/s; in data set [4] (XOR 107.0 μg, NADH 2.00 mM) it was 264.65 mV/s. For the same compound, the NO release worked out at 50.05 mV/s in data set [4] (XOR protein in assay 21.4 μg, 1 mM nitrite, 0.3 mM NADH); 76.35 mV/s in data set [4] (XOR protein in assay 53.5 μg, 1 mM nitrite, 0.3 mM NADH); 128.55 mV/s in data set [4] (XOR protein in assay 107.0 μg, 1 mM nitrite, 0.3 mM NADH); 187.20 mV/s in data set [4] (XOR protein in assay 160.5 μg, 1 mM nitrite, 0.3 mM NADH); 225.75 mV/s in data set [4] (XOR protein in assay 214.0 μg, 1 mM nitrite, 0.3 mM NADH). Moreover, the “optimum pH for the production of NO under the hypoxic conditions” value in data set [4] (hypoxic conditions) was about 5.5.
